Reference: patent publication US9808527B2, “Methods and compositions for treating HIV infections” (priority 2006, dated 2017)
“Also recorded” adds a separate entry of the source. Like-named read-outs stand apart in the source and are kept apart here.

Assays:
[1] = tested on: 97ZA003 (C-R5); experiment: p24 Gag production inhibition, PHA-PBMs, subtype C isolate 97ZA003; assay type: cell-based, HIV-1
Method: (§1) Drug susceptibility assay. The susceptibility of HIV-1LAI, HIV-2EHO, HIV-2ROD, to various drugs and the cytotoxicity of those drugs was determined by using the MTT assay. Briefly, MT-2 cells (2×10^4/mL) were exposed to 100 TCID50s (50% tissue culture infectious doses) of HIV-1LAI, HIV-2EHO, or HIV-2ROD in the presence or absence of various concentrations of drugs in 96-well microculture plates and were incubated at 37° C. for 7 days. After 100 μL of the medium was removed from each well, 3-(4,5-dimethylthiazol-2-yl)-2,5-diphenyltetrazolium bromide (MTT) solution (10 μL, 7.5 mg/mL in phosphate-buffered saline) was added to each well in the plate, followed by incubation at 37° C. for 4 hours. […] All assays were performed in duplicate or triplicate. To determine the sensitivity of HIV-1Ba-L, HIV-1ERS104 pre, and clinical multi-drug-resistant HIV-1 isolates and different subtypes of HIV-1 isolates to drugs, phytohemagglutinin-activated peripheral blood mononuclear cells (PHA-PBMs; 10^6/mL) were exposed to 50 TCID50 (50% tissue infectious dose) of each HIV-1 isolate and cultured in the presence or absence of various concentrations of drugs in 10-fold serial dilutions in 96-well microtiter culture plates. To determine the drug susceptibility of certain laboratory HIV-1 strains (HIV-1NL4-3), MT-4 cells were used as target cells. MT-4 cells (10^5/mL) were exposed to 100 TCID50 of wild type HIV-1NL4-3 and PI-resistant HIV-1NL4-3 in the presence or absence of various concentrations of drugs and were incubated at 37° C. On day 7 of culture, the supernatant was harvested and the amount of p24 Gag protein was determined by using a fully automated chemiluminescent enzyme immunoassay system (Lumipulse F; Fujirebio Inc., Tokyo, Japan) (22). […] All assays were performed in duplicate or triplicate.
(§2) The IC50 values were determined by using PHA-PBMs as target cells and the inhibition of p24 Gag protein production by each drug was used as an endpoint. All assays were conducted in duplicate, and the data shown represent mean values (±1 standard deviations) derived from the results of two or three independent experiments.

[2] = tested on: HIV-2ROD; experiment: MTT assay, MT-2 cells exposed to HIV-2ROD; assay type: cell-based
Method: as §1
(§3) All assays were conducted in duplicate, and the data shown represent mean values (±1 standard deviations) derived from the results of three independent experiments.

[3] = target: T1, CFP- and YFP-tagged HIV-1 protease subunits (Human immunodeficiency virus type 1 group M subtype B, UniProt P12497); assay type: cell-based; conditions: Cos-7 cells; for CFP A/B ratio (CFP fluorescence after/before photobleaching): ratio <1 = dimerization blocked
T1 construct: expressed in transfected cells; host or cells: Cos-7
Method: After 72 hr, cultured cells were examined in the FRET-HIV-1 assay system using confocal microscopy Fluoview FV500 confocal laser scanning microscope, and CFP^A/B were determined and plotted. […] The FRET efficiency was determined following acceptor photobleaching as previously described (Bastiaens et al., EMBO 1996; Siegel et al., Science's stke 2000; Firulli et al., Nature genetics, 2005; Szczesna et al., JBC 2003). Dequenching of the donor CFP by selective photobleaching of the acceptor YFP was performed by first obtaining YFP and CFP images at the same focal plane, followed by illuminating for 3 min the same image at wavelength of 488 nm with a laser power set at the maximum intensity to bleach YFP and re-capturing the same CFP and YFP images. The changes in the CFP and YFP fluorescence intensity in the images of selected regions were examined and quantified using Olympus FV500 Image software system. Background values were obtained from the regions where no cells were present and were subtracted from the values for the cells examined in all calculations. For each chimeric protein, the data were obtained from at least three independent experiments. FRET efficiency was determined using the formula: ET=(1−(IDA/ID))×100, where IDA and ID represent the steady-state donor fluorescence in the presence and absence of the acceptor, respectively. Digitized image data obtained from the experiment were prepared for presentation using Photoshop 6.0 (Adobe systems, Mountain View, Calif.). Ratios of intensities of ECFP fluorescence after photobleaching to ECFP fluorescence prior to photobleaching were determined. The ratios of more than 1 indicate that dimerization of CFP- and YFP-tagged protease subunits occurred and those of less than 1 indicate that dimerization was blocked by the test agent.
Generation of FRET-based HIV-1 expression assay. The basic concepts of the intermolecular fluorescence resonance energy transfer (FRET)-based HIV-1-expression assay (FRET-HIV-1 assay) are shown in FIG. 7. Within a plasmid (pHIV-1NL4-3), which encodes a full-length molecular infectious HIV-1 clone, the gene encoding a cyan fluorescent donor protein (CFP) was attached to the downstream end (C-terminus) of the gene encoding an HIV-1 protease subunit through the flexible linker added (five alanines), generating pHIV-1NL4-3/CFP (FIG. 7A). Within the other plasmid (pHIV-1NL4-3), the gene encoding a yellow fluorescent acceptor protein (YFP) was attached to the downstream end of protease-encoding gene in the same manner, generating pHIV-1NL4-3/YFP. Both CFP and YFP were designed to have phenylalanine and proline in the connection with reverse transcriptase so that the protease is cleaved from reverse transcriptase when two subunits dimerize and the dimerized protease acquires enzymatic activity. […] A focused laser beam excitation of CFP (triggered by Helium-Cadmium laser) results in rapid energy transfer to YFP, and most of the fluorescence photons are emitted by YFP (Miyawaki et al. Nature 388(6645):882-887 (1997)). If the dimerization is blocked, the average distance between CFP and YFP becomes larger and the energy transfer rate is decreased and the fraction of photons emitted by YFP is lowered.
In order to interpret the energy transfer efficiency quantitatively, an acceptor photobleaching technique was used, in which the change in CFP emission quenching is measured by comparing the value before and after selectively photobleaching YFP, which prevents problems associated with variable expression levels.

[4] = tested on: 92TH019 (E-R5); experiment: p24 Gag production inhibition, PHA-PBMs, subtype E isolate 92TH019; assay type: cell-based, HIV-1; conditions: Human immunodeficiency virus 1, read-out: IC50 against 92TH019 (E-R5)
Method: as §1, §2

[5] = tested on: HIV-1NL4-3; experiment: p24 Gag production inhibition, MT-4 cells, wild-type HIV-1NL4-3; assay type: cell-based
Method: as §1

[6] = tested on: HIV-2EHO; experiment: MTT assay, MT-2 cells exposed to HIV-2EHO; assay type: cell-based
Method: as §1, §3

[7] = tested on: HIV-1LAI; experiment: MTT assay, MT-2 cells exposed to HIV-1LAI (acute HIV-1 infection assay); assay type: cell-based; conditions: for IC50: Human immunodeficiency virus 1, MT2, 168 h; for Selectivity Index: HIV-1LAI
Method: as §1

[8] = tested on: MT-2 cells; experiment: Cytotoxicity by MTT assay; assay type: cell-based, Human
Method: as §1

[9] = Human immunodeficiency virus 1, PHA-PBMs, p24 Gag production, read-out: IC50 against 97ZA003 (C-R5)
[10] = Human immunodeficiency virus 2, MT2, MT-2 cells, 100 TCID50, MTT assay, read-out: IC50 against HIV-2ROD
[11] = Human immunodeficiency virus 1, MT4, MT-4 cells, 100 TCID50, p24 Gag production, read-out: IC50 against HIV-1NL4-3 (wild type)
[12] = Human immunodeficiency virus 2, MT2, MT-2 cells, 100 TCID50, MTT assay, read-out: IC50 against HIV-2EHO
[13] = MT-2 cells, 100 TCID50 of HIV-1LAI, MTT assay on day 7, read-out: IC50 against HIV-1LAI
[14] = cytotoxicity, MTT assay, MT-2 cells, read-out: CC50
[15] = Human immunodeficiency virus 2, MT2, read-out: IC50 against HIV-2ROD
[16] = Human immunodeficiency virus 1, MT4, read-out: IC50 against HIV-1NL4-3 (wild type)
[17] = Human immunodeficiency virus 2, MT2, read-out: IC50 against HIV-2EHO
[18] = read-out: IC50 against HIV-1LAI, MT-2 cells, 100 TCID50 of HIV-1LAI, MTT assay on day 7

## CC(C)c1nc(CN(C)C(=O)N[C@H](C(=O)N[C@@H](Cc2ccccc2)C[C@H](O)[C@H](Cc2ccccc2)NC(=O)OCc2cncs2)C(C)C)cs1 [RTV, ritonavir]
[1]; [9]
  IC50: 39 ± 4 nM
[2]; [10]
  IC50: 260 ± 10 nM
[3]; 1 μM
  inhibition of protease dimerization: None
[4]
  IC50: 30 ± 9 nM
[5]; [11]
  IC50: 33 ± 2 nM
[6]; [12]
  IC50: 210 ± 50 nM
[7]; [13]
  IC50: 54 ± 1 nM

## Cc1c(O)cccc1C(=O)N[C@@H](CSc1ccccc1)[C@H](O)CN1C[C@H]2CCCC[C@H]2C[C@H]1C(=O)NC(C)(C)C [NFV, Nelfinavir]
[1]; [9]
  IC50: 37 ± 7 nM
[2]; [10]
  IC50: 240 ± 9 nM
[3]; 1 μM
  inhibition of protease dimerization: None
[3]; 10 μM
  inhibition of protease dimerization: none of these 4 PIs inhibited protease dimerization
[4]
  IC50: 29 ± 4 nM
[5]; [11]
  IC50: 33 ± 7 nM
[8]; [14]
  CC50: 8.1 µM
[6]; [12]
  IC50: 30 ± 6 nM
[7]; [13]
  IC50: 32 ± 4 nM

## CC(C)CN(C[C@@H](O)[C@H](Cc1ccccc1)NC(=O)O[C@H]1CCOC1)S(=O)(=O)c1ccc(N)cc1 [APV, Amprenavir]
[1]; [9]
  IC50: 33 ± 5 nM
[2]; [10]
  IC50: 570 ± 10 nM
[4]
  IC50: 21 ± 6 nM
[8]; [14]
  CC50: > 100 µM
[6]; [12]
  IC50: 250 ± 80 nM
[7]; [13]
  IC50: 36 ± 2 nM

## CC(C)(C)NC(=O)[C@@H]1C[C@@H]2CCCC[C@@H]2CN1C[C@@H](O)[C@H](Cc1ccccc1)NC(=O)[C@H](CC(N)=O)NC(=O)c1ccc2ccccc2n1 [SQV, Saquinavir]
[1]; Human immunodeficiency virus 1, read-out: IC50 against 97ZA003 (C-R5)
  IC50: 6.7 ± 0.8 nM
[2]; [15]
  IC50: 4.3 ± 0.2 nM
[3]; 1 μM
  inhibition of protease dimerization: None
  CFP A/B ratio (CFP fluorescence after/before photobleaching): 1.11±0.15
[3]; 10 μM
  inhibition of protease dimerization: none of these 4 PIs inhibited protease dimerization
[4]
  IC50: 3 ± 0.1 nM
[5]; [16]
  IC50: 7 ± 2 nM
[8]; [14]
  CC50: 16.4 µM
[6]; [17]
  IC50: 3 ± 0.4 nM
[7]; MT-2 cells
  Selectivity Index: 2050
[7]; [18]
  IC50: 8 ± 1 nM

## CC(C)(C)NC(=O)[C@@H]1CN(Cc2cccnc2)CCN1C[C@@H](O)C[C@@H](Cc1ccccc1)C(=O)N[C@H]1c2ccccc2C[C@H]1O [IDV, indinavir]
[1]; [9]
  IC50: 37 ± 6 nM
[2]; [10]
  IC50: 54 ± 3 nM
[4]
  IC50: 21 ± 1 nM
[8]; [14]
  CC50: 69.8 µM
[6]; [12]
  IC50: 24 ± 5 nM
[7]; [13]
  IC50: 48 ± 7 nM

## CC(C)CN(CC(O)C(Cc1ccccc1)NC(=O)OC1COC2OCCC12)S(=O)(=O)c1ccc2c(c1)OCO2 (stereo not shown) [GRL-98065]
[1]; [9]
  IC50: 0.5 ± 0.1 nM
[2]; [15]
  IC50: 4.5 ± 0.4 nM
[3]; 1 μM
  inhibition of protease dimerization: dimerization was effectively blocked; also recorded: disrupt protease dimerization
[4]
  IC50: 0.3 ± 0.1 nM
[5]; [16]
  IC50: 0.3 ± 0.2 nM
[6]; [17]
  IC50: 3.2 ± 0.7 nM
[7]; MT-2 cells
  Selectivity Index: 71,400
[7]; [18]
  IC50: ~0.5 nM
[7]; read-out: MTT assay (IC50, nM), Human CD4+ MT-2 cells, 100 TCID50 of HIV-1LAI, day 7
  IC50: 0.4 nM

## Cc1cccc(C)c1OCC(=O)N[C@@H](Cc1ccccc1)[C@@H](O)C[C@H](Cc1ccccc1)NC(=O)[C@H](C(C)C)N1CCCNC1=O [LPV, lopinavir]
[1]; [9]
  IC50: 7.3 ± 0.6 nM
[2]; [10]
  IC50: 4.9 ± 0.8 nM
[3]; 1 μM
  inhibition of protease dimerization: None
[4]
  IC50: 3.3 ± 0.5 nM
[5]; [11]
  IC50: 31 ± 9 nM
[8]; [14]
  CC50: > 100 µM
[6]; [12]
  IC50: 2.6 ± 0.8 nM
[7]; [13]
  IC50: 7 ± 1 nM

## COC(=O)N[C@H](C(=O)N[C@@H](Cc1ccccc1)[C@@H](O)CN(Cc1ccc(-c2ccccn2)cc1)NC(=O)[C@@H](NC(=O)OC)C(C)(C)C)C(C)(C)C [ATV, Atazanavir]
[1]; [9]
  IC50: 3.4 ± 0.1 nM
[2]; [15]
  IC50: 13 ± 6 nM
[3]; 1 μM
  inhibition of protease dimerization: None
  CFP A/B ratio (CFP fluorescence after/before photobleaching): 1.25±0.12
[3]; 10 μM
  inhibition of protease dimerization: none of these 4 PIs inhibited protease dimerization
[4]
  IC50: 2.7 ± 0.1 nM
[5]; [16]
  IC50: 4.2 ± 0.4 nM
[8]; human, 7 days
  CC50: 27.6 µM
[6]; [17]
  IC50: 5 ± 2 nM
[7]; MT-2 cells
  Selectivity Index: 5750
[7]; [18]
  IC50: 4.8 ± 0.1 nM
